Assay results taken from US9995734B2, “Human T cell line assay for evaluating the immunologic identity of glatiramer acetate preparations” (Mylan Inc., priority 2013, dated 2018).

Key:
[1] = tested on: Donor 3 GMA Responsive T Cells; assay: Cytokine multiplex assay, Donor 3 GMA responsive T cells; assay type: cell-based, human; conditions: culture medium
Protocol: (§1) The concentration of multiple cytokines was measured simultaneously using FlowCytoMix™ kits (eBioscience, San Diego Calif.). These are fluorescent bead based assays consisting of beads conjugated to anti cytokine antibodies. Beads specific for each cytokine are distinguished by size and fluorescence at 670 run. Cytokine bound to each bead is detected using a phycoerythrin conjugated antibody so that the fluorescence at 585 nm reflects the concentration of cytokine in the sample. Two kits were utilized which measured different cytokine panels. The TH1/TH2 kit measures IFN-γ, IL-1β, IL-2, IL-4, IL-5, IL-6, IL-8, IL-10, IL-12p70, TNF-α (TNF) and TNF-β (LT). The TH1/TH2/TH9/TH17/TH22 kit measures […], IL-1β, IL-2, IL-4, IL-5, IL-6, IL-9, IL-10, IL-12p70, IL-13, IL-17, IL-22, and TNF-α (TNF). Both kits were used following the manufacturer's instructions.

[2] = tested on: Donor 4 COP Responsive T-Cell Lines; assay: Multiplex bead cytokine assay (FlowCytomix), Donor 4 COP responsive T-cell lines; assay type: cell-based, human; design: IFN-γ / 1L-9 / IL-22 / IL-13: unit not given here
Protocol: as §1
On Day 23 the positive wells (cell lines listed in Table 26) were transferred to a 24-well plate and restimulated with 10 μg/mL COP in the presence of mitomycin-treated autologous PBMC. IL-2 was added at Day 24. On Day 31 (after four rounds of restimulation) ten lines were restimulated with 10 μg/mL COP to confirm antigen reactivity by a cytokine secretion assay. T-cells were added at 2×10^4 cells/well in 96-well plates in X-VIVO 15 medium. Each line was separately stimulated with 10 μg/mL GMA, and 10 μg/mL COP in the presence of (2×10^5 cells/well, i.e., 1×10^6 cells/mL) mitomycin-treated autologous PBMC. Culture medium was collected after 20-24 hours for cytokine assay (FlowCytomix multiplex bead assay). The supernatants were tested in triplicate for IL-12 p70, IFN-γ, IL-2, IL-10, IL-6, IL-4, IL-5, TNF-α, and TNF-β secretion. […] Secretion of IL-2, 11-10, and IL-4 varied among the lines. All samples also secreted IL-8 (data not shown).
Culture medium from each of two Donor 4 cell lines was assayed for an extended panel of cytokines, showing production of IL-13 and IL-22 (Table 32).

[3] = T-cell line 1H9, 10 μg/mL, Day 31, medium after 20-24 hours
[4] = T-cell line 1H11, 10 μg/mL, Day 31, medium after 20-24 hours
[5] = T-cell line 205-1B4, extended cytokine multiplex assay
[6] = T-cell line 205-1B7, 10 μg/mL, Day 31, medium after 20-24 hours
[7] = T-cell line 205-1C4, 10 μg/mL, Day 31, medium after 20-24 hours
[8] = T-cell line 205-1F4, extended cytokine multiplex assay
[9] = T-cell line 205-1F5, 10 μg/mL, Day 31, medium after 20-24 hours
[10] = T-cell line 205-1G3, 10 μg/mL, Day 31, medium after 20-24 hours
[11] = T-cell line 205-1H5, 10 μg/mL, Day 31, medium after 20-24 hours
[12] = T-cell line 205-1H7, 10 μg/mL, Day 31, medium after 20-24 hours

In the case of glatiramer acetate [GMA], the IFN-γ ([1]; T-cell line 165-B5G) is reported as 201 pg/mL, the IL-4 ([1]; T-cell line 165-B5G) is reported as 47 pg/mL and the IL-5 ([1]; T-cell line 165-B5G) is reported as 399 pg/mL. It also gave an IL-13 ([1]; T-cell line 165-B5G) of 2930 pg/mL, an IL-22 ([1]; T-cell line 165-B5G) of 248 pg/mL and an IFN-γ ([1]; T-cell line 165-D8G) of 121 pg/mL. For the same substance, the IL-4 ([1]; T-cell line 165-D8G) was 12 pg/mL, the IL-5 ([1]; T-cell line 165-D8G) was 309 pg/mL and the IL-13 ([1]; T-cell line 165-D8G) was 3326 pg/mL. For the same substance, the IL-22 ([1]; T-cell line 165-D8G) was 405 pg/mL, the IFN-γ ([1]; T-cell line 165-E9G) was 837 pg/mL and the IL-4 ([1]; T-cell line 165-E9G) was 6 pg/mL. For the same substance, the IL-5 ([1]; T-cell line 165-E9G) was 236 pg/mL, the IL-13 ([1]; T-cell line 165-E9G) was 1499 pg/mL and the IL-22 ([1]; T-cell line 165-E9G) was 245 pg/mL. It also gave an IFN-γ ([1]; T-cell line 165-F8G) of 889 pg/mL, an IL-4 ([1]; T-cell line 165-F8G) of 5 pg/mL and an IL-5 ([1]; T-cell line 165-F8G) of 370 pg/mL. For the same substance, the IL-13 ([1]; T-cell line 165-F8G) was 1193 pg/mL, the IL-22 ([1]; T-cell line 165-F8G) was 197 pg/mL and the IFN-γ ([1]; T-cell line 165-F10G) was 1108 pg/mL. For the same substance, the IL-4 ([1]; T-cell line 165-F10G) was 114 pg/mL, the IL-5 ([1]; T-cell line 165-F10G) was 2589 pg/mL and the IL-13 ([1]; T-cell line 165-F10G) was 10897 pg/mL. The IL-22 ([1]; T-cell line 165-F10G) was 680 pg/mL, the IFN-γ ([1]; T-cell line 165-H11G) was 724 pg/mL and the IL-4 ([1]; T-cell line 165-H11G) was 7 pg/mL. It also gave an IL-5 ([1]; T-cell line 165-H11G) of 320 pg/mL, an IL-13 ([1]; T-cell line 165-H11G) of 1058 pg/mL and an IL-22 ([1]; T-cell line 165-H11G) of 201 pg/mL. For the same substance, the IFN-y [2, 3] was 182.77 pg/mL, the IL-2 [2, 3] was “<=0 pg/mL” and the IL-4 [2, 3] was “<=0 pg/mL”. The IL-5 [2, 3] was “<=0 pg/mL”, the IL-6 [2, 3] was 74.92 pg/mL and the IL-10 [2, 3] was “<=0 pg/mL”. For the same substance, the “IL-12 p70” value [2, 3] was “<=0 pg/mL”, the TNF-α [2, 3] was 161.89 pg/mL and the TNF-β [2, 3] was “<=0 pg/mL”. For the same substance, the IFN-y [2, 4] was 929 pg/mL, the IL-2 [2, 4] was 22.78 pg/mL and the IL-4 [2, 4] was “<=0 pg/mL”. It also gave an IL-5 [2, 4] of 3349.8 pg/mL, an IL-6 [2, 4] of 28.28 pg/mL and an IL-10 [2, 4] of 145 pg/mL. For the same substance, the “IL-12 p70” value [2, 4] was 2.24 pg/mL, the TNF-α [2, 4] was 609.49 pg/mL and the TNF-β [2, 4] was “<=0 pg/mL”. For the same substance, the 1L-9 [2, 5] was 21, the IFN-γ [2, 5] was 713 and the IL-2 [2, 5] was 0. It also gave an IL-4 [2, 5] of 117, an IL-5 [2, 5] of 3104 and an IL-6 [2, 5] of 109. It also gave an IL-10 [2, 5] of 25, an IL-13 [2, 5] of 13895 and an IL-22 [2, 5] of 478. The TNF-α [2, 5] was 868, the IFN-y [2, 6] was 828.5 pg/mL and the IL-2 [2, 6] was 10.89 pg/mL. For the same substance, the IL-4 [2, 6] was 187.29 pg/mL, the IL-5 [2, 6] was 6854.13 pg/mL and the IL-6 [2, 6] was 187.85 pg/mL. For the same substance, the IL-10 [2, 6] was 182.81 pg/mL, the “IL-12 p70” value [2, 6] was 44.57 pg/mL and the TNF-α [2, 6] was 1305.37 pg/mL. For the same substance, the TNF-β [2, 6] was 217.5 pg/mL, the IFN-y [2, 7] was 1046.32 pg/mL and the IL-2 [2, 7] was 312.13 pg/mL. The IL-4 [2, 7] was 124.7 pg/mL, the IL-5 [2, 7] was 5434.06 pg/mL and the IL-6 [2, 7] was 149.35 pg/mL. The IL-10 [2, 7] was 45.24 pg/mL, the “IL-12 p70” value [2, 7] was 46.89 pg/mL and the TNF-α [2, 7] was 1059.01 pg/mL. The TNF-β [2, 7] was 81.04 pg/mL, the 1L-9 [2, 8] was 7 and the IFN-γ [2, 8] was 1207. It also gave an IL-2 [2, 8] of 76, an IL-4 [2, 8] of 7 and an IL-5 [2, 8] of 1459. The IL-6 [2, 8] was 73, the IL-10 [2, 8] was 16 and the IL-13 [2, 8] was 4506. The IL-22 [2, 8] was 186, the TNF-α [2, 8] was 323 and the IFN-y [2, 9] was 479.26 pg/mL. The IL-2 [2, 9] was 197.46 pg/mL, the IL-4 [2, 9] was 328.72 pg/mL and the IL-5 [2, 9] was 13930.97 pg/mL. For the same substance, the IL-6 [2, 9] was 314.54 pg/mL, the IL-10 [2, 9] was 231.63 pg/mL and the “IL-12 p70” value [2, 9] was 67.53 pg/mL. The TNF-α [2, 9] was 1084.01 pg/mL, the TNF-β [2, 9] was 260.35 pg/mL and the IFN-y [2, 10] was 193.91 pg/mL. For the same substance, the IL-2 [2, 10] was 5.27 pg/mL, the IL-4 [2, 10] was “<=0 pg/mL” and the IL-5 [2, 10] was 121.17 pg/mL. For the same substance, the IL-6 [2, 10] was 16.67 pg/mL, the IL-10 [2, 10] was “<=0 pg/mL” and the “IL-12 p70” value [2, 10] was 2.37 pg/mL. It also gave a TNF-α [2, 10] of 68.79 pg/mL, a TNF-β [2, 10] of 17.66 pg/mL and an IFN-y [2, 11] of 902.95 pg/mL. For the same substance, the IL-2 [2, 11] was “<=0 pg/mL”, the IL-4 [2, 11] was 46.82 pg/mL and the IL-5 [2, 11] was 2534.09 pg/mL. For the same substance, the IL-6 [2, 11] was 52.4 pg/mL, the IL-10 [2, 11] was “<=0 pg/mL” and the “IL-12 p70” value [2, 11] was 8.78 pg/mL. It also gave a TNF-α [2, 11] of 910.83 pg/mL, a TNF-β [2, 11] of 79.8 pg/mL and an IFN-y [2, 12] of 1275.97 pg/mL. It also gave an IL-2 [2, 12] of 176.52 pg/mL, an IL-4 [2, 12] of 58.41 pg/mL and an IL-5 [2, 12] of 96.95 pg/mL. The IL-6 [2, 12] was 64.82 pg/mL, the IL-10 [2, 12] was “<=0 pg/mL” and the “IL-12 p70” value [2, 12] was 13.42 pg/mL. The TNF-α [2, 12] was 552.89 pg/mL, the TNF-β [2, 12] was 34.81 pg/mL and the “cytokine secretion” value ([2]; most tested Donor 4 cell lines, Day 31, 10 μg/mL, 20-24 hours) was “secreted IFN-γ, IL-5, and TNF-α”.
